{"source": "PubChem BioAssay AID1259411", "about": "(Chemical Carcinogenesis Research Information System (CCRIS), 2018)", "test_system": "rodent carcinogenicity bioassays, tumor incidence", "experiment": "CCRIS carcinogenicity studies", "how_it_was_run": "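NCI-built, expert-reviewed records of carcinogenicity and related test outcomes (mutagenicity, tumor promotion/inhibition) compiled from published and report sources, historical span 1985-2011, not updated.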", "note": "Activity calls are given as the source filed them. No rule for the calls is given here.", "data": [{"smiles": "CC(=O)OC1CC(C)OC(C)O1", "note": "(stereo not drawn)", "values": [{"measurement": "carcinogen call", "setting": "Species: MOUSE, Strain/Sex: B6C3F1/FEMALE, Route: GAVAGE, Dose: 0, 250, 500 MG/KG IN CORN OIL 5 D/WK FOR 103 WK (STUDY DURATION: 105 WK), Dose: 0, 250, 500 MG/KG IN CORN OIL 5 D/WK FOR 103 WK (STUDY DURATION: 105 WK)", "result": "inactive; negative"}, {"measurement": "carcinogen call", "setting": "Species: MOUSE, Strain/Sex: B6C3F1/MALE, Route: GAVAGE, Dose: 0, 250, 500 MG/KG IN CORN OIL 5 D/WK FOR 103 WK (STUDY DURATION: 105 WK), Dose: 0, 250, 500 MG/KG IN CORN OIL 5 D/WK FOR 103 WK (STUDY DURATION: 105 WK), Tumor Site: Type of Lesion: FORESTOMACH: SQUAMOUS PAPILLOMA OR SQUAMOUS CELL CARCINOMA", "result": "equivocal"}, {"measurement": "carcinogen call", "setting": "Species: RAT, Route: ORAL, Tumor Site: Type of Lesion: LIVER", "result": "active; positive"}, {"measurement": "carcinogen call", "setting": "Species: RAT, Strain/Sex: F344/FEMALE, Route: GAVAGE, Dose: 0, 125, 250 MG/KG IN CORN OIL 5 D/WK FOR 103 WK (STUDY DURATION: 105 WK), Dose: 0, 125, 250 MG/KG IN CORN OIL 5 D/WK FOR 103 WK (STUDY DURATION: 105 WK)", "result": "inactive; negative"}, {"measurement": "carcinogen call", "setting": "Species: RAT, Strain/Sex: F344/MALE, Route: GAVAGE, Dose: 0, 62.5, 125 MG/KG IN CORN OIL 5 D/WK FOR 103 WK (STUDY DURATION: 105 WK), Dose: 0, 62.5, 125 MG/KG IN CORN OIL 5 D/WK FOR 103 WK (STUDY DURATION: 105 WK)", "result": "inactive; negative"}]}, {"smiles": "O=c1ccc(O)n[nH]1", "values": [{"measurement": "carcinogen call", "setting": "Species: Mouse, Strain/Sex: Charles River CD-1/Female (50/Group), Route: Oral, Dose: 0, 189, 598, 1811 mg/kg/day of 90% maleic hydrazide potassium salt in diet for 98 wk, study duration 98 wk, Dose: 0, 189, 598, 1811 mg/kg/day of 90% maleic hydrazide potassium salt in diet for 98 wk, study duration 98 wk", "result": "inactive; negative"}, {"measurement": "carcinogen call", "setting": "Species: Mouse, Strain/Sex: Charles River CD-1/Male (50/Group), Route: Oral, Dose: 0, 157, 509, 1545 mg/kg/day of 90% maleic hydrazide potassium salt in diet for 98 wk, study duration 98 wk, Dose: 0, 157, 509, 1545 mg/kg/day of 90% maleic hydrazide potassium salt in diet for 98 wk, study duration 98 wk", "result": "inactive; negative"}, {"measurement": "carcinogen call", "setting": "Species: Rat, Strain/Sex: Sprague-Dawley/Female (50/Group), Route: Oral, Dose: 0, 25, 500, 1000 mg/kg/day of 72.5-73.8% as maleic hydrazide in diet for 104 wk, study duration 104 wk, Dose: 0, 25, 500, 1000 mg/kg/day of 72.5-73.8% as maleic hydrazide in diet for 104 wk, study duration 104 wk", "result": "inactive; negative"}, {"measurement": "carcinogen call", "setting": "Species: Rat, Strain/Sex: Sprague-Dawley/Male (50/Group), Route: Oral, Dose: 0, 25, 500, 1000 mg/kg/day of 72.5-73.8% as maleic hydrazide in diet for 104 wk, study duration 104 wk, Dose: 0, 25, 500, 1000 mg/kg/day of 72.5-73.8% as maleic hydrazide in diet for 104 wk, study duration 104 wk", "result": "inactive; negative"}]}, {"smiles": "ON=C1CCCC1", "values": [{"measurement": "carcinogen call", "setting": "Species: RAT, Strain/Sex: F344/MALE, Route: GAVAGE, Dose: 0, 2 MMOL/KG BW 1/WK FOR 50 WK (STUDY DURATION: 83 WK)", "result": "inactive; negative"}]}, {"smiles": "CCN(Cc1cccc(S(=O)(=O)O)c1)c1ccc(C(=C2C=CC(=[N+](CC)Cc3cccc(S(=O)(=O)O)c3)C=C2)c2ccc(O)cc2S(=O)(=O)[O-])cc1", "values": [{"measurement": "carcinogen call", "setting": "Species: MOUSE, Strain/Sex: SWISS-WEBSTER/FEMALE, Route: DERMAL, Dose: 0, 1% IN 0.1 ML DISTILLED WATER 1/WK FOR 19.5 MO (STUDY DURATION: 19.5 MO)", "result": "inactive; negative"}, {"measurement": "carcinogen call", "setting": "Species: MOUSE, Strain/Sex: SWISS-WEBSTER/MALE, Route: DERMAL, Dose: 0, 1% IN 0.1 ML DISTILLED WATER 1/WK FOR 19.5 MO (STUDY DURATION: 19.5 MO)", "result": "inactive; negative"}, {"measurement": "carcinogen call", "setting": "Species: RAT, Strain/Sex: FISCHER/FEMALE, Route: SUBCUTANEOUS, Dose: 0, 0.5 ML OF 3% SOLUTION IN DISTILLED WATER (0; 15 MG) 2/WK FOR 26 WK THEN 1/WK FOR 22 WK (STUDY DURATION: 11 MO), Dose: 0, 0.5 ML OF 3% SOLUTION IN DISTILLED WATER (0; 15 MG) 2/WK FOR 26 WK THEN 1/WK FOR 22 WK (STUDY DURATION: 11 MO), Tumor Site: Type of Lesion: INJECTION SITE: FIBROSARCOMA", "result": "active; positive"}, {"measurement": "carcinogen call", "setting": "Species: RAT, Strain/Sex: FISCHER/FEMALE, Route: SUBCUTANEOUS, Dose: 0, 0.5 ML OF 6% SOLUTION IN DISTILLED WATER (0; 30 MG) 2/WK FOR 19 WK THEN 3% SOLUTION (0; 15 MG) 2/WK FOR 9 WK FOLLOWED, Dose: 0, 0.5 ML OF 6% SOLUTION IN DISTILLED WATER (0; 30 MG) 2/WK FOR 19 WK THEN 3% SOLUTION (0; 15 MG) 2/WK FOR 9 WK FOLLOWED, Tumor Site: Type of Lesion: INJECTION SITE: FIBROSARCOMA", "result": "active; positive"}]}, {"smiles": "CN(C)c1nc(=O)n(C2CCCCC2)c(=O)n1C", "values": [{"measurement": "carcinogen call", "setting": "Species: DOG, Strain/Sex: BEAGLE/FEMALE, Route: ORAL, Dose: 0, 200, 1000 PPM IN DIET FOR 90 D OR 5000 PPM FOR 1 WK, THEN 2500 PPM FOR 4 D IN WK 2 THEN 3750 PPM FOR 3 D FOLLOWED BY, Dose: 0, 200, 1000 PPM IN DIET FOR 90 D OR 5000 PPM FOR 1 WK, THEN 2500 PPM FOR 4 D IN WK 2 THEN 3750 PPM FOR 3 D FOLLOWED BY", "result": "inactive; negative"}, {"measurement": "carcinogen call", "setting": "Species: DOG, Strain/Sex: BEAGLE/MALE, Route: ORAL, Dose: 0, 200, 1000 PPM IN DIET FOR 90 D OR 5000 PPM FOR 1 WK, THEN 2500 PPM FOR 4 D IN WK 2 THEN 3750 PPM FOR 3 D FOLLOWED BY, Dose: 0, 200, 1000 PPM IN DIET FOR 90 D OR 5000 PPM FOR 1 WK, THEN 2500 PPM FOR 4 D IN WK 2 THEN 3750 PPM FOR 3 D FOLLOWED BY", "result": "inactive; negative"}, {"measurement": "carcinogen call", "setting": "Species: MOUSE, Strain/Sex: CD-1/FEMALE, Route: ORAL, Dose: 0, 200, 2500, 10000 PPM IN DIET FOR 2 YR (STUDY DURATION: 2 YR), Dose: 0, 200, 2500, 10000 PPM IN DIET FOR 2 YR (STUDY DURATION: 2 YR)", "result": "inactive; negative"}, {"measurement": "carcinogen call", "setting": "Species: MOUSE, Strain/Sex: CD-1/MALE, Route: ORAL, Dose: 0, 200, 2500, 10000 PPM IN DIET FOR 2 YR (STUDY DURATION: 2 YR), Dose: 0, 200, 2500, 10000 PPM IN DIET FOR 2 YR (STUDY DURATION: 2 YR)", "result": "inactive; negative"}, {"measurement": "carcinogen call", "setting": "Species: RAT, Strain/Sex: CRL-CD/FEMALE, Route: ORAL, Dose: 0, 200, 1000, 2500 PPM IN DIET FOR 2 YR (STUDY DURATION: 2 YR), Dose: 0, 200, 1000, 2500 PPM IN DIET FOR 2 YR (STUDY DURATION: 2 YR)", "result": "inactive; negative"}, {"measurement": "carcinogen call", "setting": "Species: RAT, Strain/Sex: CRL-CD/MALE, Route: ORAL, Dose: 0, 200, 1000, 2500 PPM IN DIET FOR 2 YR (STUDY DURATION: 2 YR), Dose: 0, 200, 1000, 2500 PPM IN DIET FOR 2 YR (STUDY DURATION: 2 YR)", "result": "inactive; negative"}]}, {"smiles": "Cc1cccc(C)c1NC1=NCCCS1", "values": [{"measurement": "carcinogen call", "setting": "Species: RAT, Strain/Sex: F344/MALE, Route: ORAL, Dose: 0, 1,000 PPM IN FEED FOR 52 WK (STUDY DURATION: 52 WK), Tumor Site: Type of Lesion: THYROID: ADENOMA", "result": "active; positive"}]}, {"smiles": "CCN(CC)C(=O)N(CC)N=O", "values": [{"measurement": "carcinogen call", "setting": "Species: HAMSTER, Strain/Sex: SYRIAN/MALE, Route: GAVAGE, Dose: 0, 45 MG/ML (0.2 ML OF A SOLUTION IN 50% ETHANOL) 1/WK FOR 25 WK (STUDY DURATION: LIFE SPAN), Tumor Site: Type of Lesion: SPLEEN: HEMANGIOSARCOMA, FORESTOMACH: SQUAMOUS CELL CARCINOMA OR PAPILLOMA", "result": "active; positive"}]}, {"smiles": "CN1[C@@H]2CC[C@H]1CC(OC(=O)C(CO)c1ccccc1)C2", "note": "(stereo partly drawn)", "values": [{"measurement": "carcinogen call", "setting": "Species: RAT, Strain/Sex: SPRAGUE-DAWLEY/FEMALE, Route: INTRAPERITONEAL, Dose: 0, 25 UG/KG BW 2/D FOR 5 D TO VIRGIN FEMALE RATS (STUDY DURATION: 28 MO)", "result": "inactive; negative"}]}]}
